{"source": "patent US20250213627A1", "about": "“RECOMBINANT MICROORGANISM-BASED METHODS AND COMPOSITIONS FOR TREATMENT OF DISEASE” (Baylor College of Medicine, priority 2021, published 2025)", "key": {"rats": {"tested_on": "rats", "assay": "Side effects of KCa1.1 blockers (urine spots, tremor measurements)", "format": "in vivo, rat", "details": "single injection", "method": "(§1) FIGS. 12A-12E. Blocking KCa1.1 reduces the severity of an animal model of RA. FIG. 12A. Effects of vehicle (□), paxilline (▪, 20 mg/kg), and iberiotoxin (IbTX, ▪, 0.5 mg/kg) in rats with PIA. Injections were given intraperitoneally (paxilline) or subcutaneously (IbTX), every other day, starting at onset of clinical signs. N=18 rats per group. FIG. 12B. Ex vivo invasiveness of FLS isolated from healthy rats or arthritic rats, treated with vehicle or IbTX. N=5 rats per group. FIG. 12C. Representative images from the joints of arthritic rats, treated with vehicle or IbTX, and stained with Safranin O-fast green (red: cartilage & bone marrow; blue: bone). FIG. 12D. Number of urine spots after rats received a single injection of vehicle, paxilline, or IbTX and were gavaged with 1 ml drinking water. N=6 rats per group. FIG. 12E. Representative tremor measurements in rats 10 min after the injection of vehicle, paxilline, or IbTX. *p<0.05, **p<0.01, ***p<0.001.\n(§2) The inventors have tested the efficacy and safety of two KCa1.1 blockers, the small molecule paxilline that blocks KCa1.1 regardless of β subunit and the peptide IbTX that blocks only some αβ combinations of KCa1.1."}, "KCa1.1": {"molecular_target": "KCa1.1 (Homo sapiens, UniProt Q12791)", "sequence (Q12791 whole entry, species assumed)": "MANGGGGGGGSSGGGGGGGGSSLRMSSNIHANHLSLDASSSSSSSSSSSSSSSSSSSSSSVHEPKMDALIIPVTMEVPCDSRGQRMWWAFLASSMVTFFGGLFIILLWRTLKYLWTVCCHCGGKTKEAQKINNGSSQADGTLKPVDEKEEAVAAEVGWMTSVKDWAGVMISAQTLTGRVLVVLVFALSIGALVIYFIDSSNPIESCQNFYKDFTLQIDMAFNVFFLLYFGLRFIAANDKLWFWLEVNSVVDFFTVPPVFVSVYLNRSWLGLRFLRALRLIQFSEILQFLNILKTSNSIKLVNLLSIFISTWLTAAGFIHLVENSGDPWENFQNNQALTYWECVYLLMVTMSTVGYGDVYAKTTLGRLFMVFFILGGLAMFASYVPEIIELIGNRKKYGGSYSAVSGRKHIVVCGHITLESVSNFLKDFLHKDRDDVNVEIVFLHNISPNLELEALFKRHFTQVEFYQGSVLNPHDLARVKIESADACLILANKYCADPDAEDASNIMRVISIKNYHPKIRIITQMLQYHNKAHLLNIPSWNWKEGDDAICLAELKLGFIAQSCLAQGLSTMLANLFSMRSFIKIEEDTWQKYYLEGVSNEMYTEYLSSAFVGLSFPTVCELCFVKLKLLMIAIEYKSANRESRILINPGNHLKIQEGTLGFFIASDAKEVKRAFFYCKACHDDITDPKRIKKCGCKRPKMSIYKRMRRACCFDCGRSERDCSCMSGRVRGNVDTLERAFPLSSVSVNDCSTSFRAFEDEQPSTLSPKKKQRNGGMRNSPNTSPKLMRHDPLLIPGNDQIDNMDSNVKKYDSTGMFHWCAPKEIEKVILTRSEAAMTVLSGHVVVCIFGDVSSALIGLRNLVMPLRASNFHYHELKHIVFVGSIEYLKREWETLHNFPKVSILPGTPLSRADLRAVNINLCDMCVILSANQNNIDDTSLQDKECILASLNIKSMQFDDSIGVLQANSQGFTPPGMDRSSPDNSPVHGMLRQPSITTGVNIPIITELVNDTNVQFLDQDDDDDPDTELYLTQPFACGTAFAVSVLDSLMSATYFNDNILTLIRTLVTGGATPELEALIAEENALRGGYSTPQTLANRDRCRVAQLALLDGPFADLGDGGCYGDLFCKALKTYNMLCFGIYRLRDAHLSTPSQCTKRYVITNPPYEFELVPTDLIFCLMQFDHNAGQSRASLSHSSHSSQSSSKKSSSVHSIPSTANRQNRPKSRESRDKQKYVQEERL", "details": "cited from earlier work"}, "active plaque psoriasis": {"tested_on": "active plaque psoriasis", "details": "doses as low at 30 μg/patient 3 times a week subcutaneously; cited from earlier work"}, "[1]": {"tested_on": "Kv1.3 versus Kv1.1 and other ion channels", "details": "cited from earlier work"}, "[2]": {"tested_on": "CCR7− TEM cells and CCR7+ naïve/TCM cells", "assay": "[3H]-thymidine incorporation proliferation of T-cell subsets in presence of ShK-186", "format": "cell-based, human", "method": "FIGS. 2A-2C. […] FIGS. 2A-2B. Naïve/TCM (▪) and TEM (▪) cells were separated based on CCR7 expression and activated in the presence of ShK-186, either immediately after isolation (FIG. 2A) or after an overnight pre-activation to induce the upregulation of either KV1.3 or KCa3.1 (FIG. 2B). FIG. 2C. TEM cells were activated with 10 (◯), 30 (▪), or 90 (▴) μg/ml antigen in the presence of ShK-186. In all aspects, T-cell proliferation was assessed via [3H] thymidine incorporation into the DNA of the dividing cells. Each data point represents mean±SD of triplicates.\nThe activation of CCR7^− TEM cells induces the upregulation of the Kv1.3 K^+ channel (FIG. 1)^8,9. In contrast, CCR7^+ naïve and central memory T (TCM) cells upregulate a different K^+ channel (KCa3.1) upon activation^8,9,35. The inventors therefore designed selective Kv1.3 blockers and assessed the sensitivity of the different T-cell subsets to Kv1.3 block. […] Without wishing to be bound by theory, this “escape” by naïve/TCM effectors may be due to up-regulation of the calcium-activated KCa3.1 channel that regulates membrane potential and Ca^2+ signaling in naïve/TCM effectors in place of Kv1.38. The significance of this finding is that in some aspects Kv1.3 blockers have an advantage over current immunotherapies because naïve and long-lived TCM cells (the main memory pool) would escape inhibition while TEM cells would be targeted."}, "Kv1.3": {"molecular_target": "Kv1.3 (Mus musculus, UniProt P16390)", "sequence (P16390 whole entry)": "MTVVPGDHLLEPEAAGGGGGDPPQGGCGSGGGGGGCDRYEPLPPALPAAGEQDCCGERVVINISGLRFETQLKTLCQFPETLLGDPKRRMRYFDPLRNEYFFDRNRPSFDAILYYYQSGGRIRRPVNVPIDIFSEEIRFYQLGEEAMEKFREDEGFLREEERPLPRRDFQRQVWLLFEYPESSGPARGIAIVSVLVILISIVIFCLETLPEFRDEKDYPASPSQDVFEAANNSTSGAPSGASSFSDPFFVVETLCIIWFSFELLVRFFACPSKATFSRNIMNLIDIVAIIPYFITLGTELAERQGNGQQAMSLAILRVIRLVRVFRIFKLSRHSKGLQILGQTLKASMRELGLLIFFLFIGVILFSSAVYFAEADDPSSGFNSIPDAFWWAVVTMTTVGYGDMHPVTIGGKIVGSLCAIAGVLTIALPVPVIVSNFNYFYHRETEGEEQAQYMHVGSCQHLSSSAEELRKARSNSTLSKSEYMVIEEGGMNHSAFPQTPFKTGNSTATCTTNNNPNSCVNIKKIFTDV", "details": "literature values; cited from earlier work"}, "[3]": {"tested_on": "viral or bacterial infections in rats", "details": "rat, in vivo; cited from earlier work"}, "[4]": {"tested_on": "rat models of RA and multiple sclerosis", "details": "in vivo; cited from earlier work"}, "[5]": {"tested_on": "rodents, non-human primates, healthy humans, and patients", "details": "systemic administration; Phase 1A and 1B; cited from earlier work"}, "[6]": {"assay": "Immunohistochemistry detection of HA tag in spleen after injection", "format": "in vivo, rat", "details": "subcutaneous injection, spleens collected 3 hours later", "method": "FIGS. 10A-10B. LrS235-HA secretes functionally active HA-tagged ShK-235. FIG. 10A. Representative whole-cell Kv1.3 currents measured by patch-clamp in cells stably expressing Kv1.3 before (control, top trace) and after application of ShK-235-HA (bottom trace). FIG. 10B. Healthy Lewis rats received a subcutaneous injection of either ShK-235-HA (left) or of untagged ShK-235 (right). Their spleens were collected 3 hours later and stained to detect the HA tag in brown (arrows). Scale bar: 50 μm.\nTwo complementary approaches to directly detect ShK-235 in joints and tissues and assess its action on T lymphocyte proliferation are used. L. reuteri LJ01 has been engineered to express HA-tagged ShK-235 (LrS235-HA), because the low immunogenicity of the peptide has made it impossible to raise antibodies against ShK-235. […] ShK-235-HA was injected to healthy rats and their spleens collected. […] HA-tagged ShK-235 is used to detect and localize ShK-235 in the joints, intestines, and secondary lymphoid organs of rats with CIA."}, "rat model of RA (PIA)": {"tested_on": "rat model of RA (PIA)", "assay": "Pristane-induced arthritis (PIA) model treated with KCa1.1 blockers", "format": "in vivo", "details": "paxilline 20 mg/kg i.p., IbTX 0.5 mg/kg s.c., every other day from onset", "method": "as §1, §2"}, "CIA": {"tested_on": "CIA", "details": "injected; cited from earlier work"}, "rat CIA model of RA": {"tested_on": "rat CIA model of RA", "assay": "CIA model treated with LrIbTX", "format": "in vivo", "details": "daily treatment for 3 weeks from onset", "description": "CIA is induced in male and female Lewis rats as described above and the rats monitored for clinical signs of arthritis. Treatment begins at onset of clinical signs, at which time rats are randomly assigned to the different treatment groups: oral LrIbTX, oral LrIbTX[R34D], injected synthetic IbTX, and injected vehicle. Treatment continues daily for 3 weeks. Rats are scored daily for CIA severity with a score of 2 given for each lightly swollen ankle or wrist, 5 for each severely swollen ankle and wrist, and 1 for each red and swollen small joint for a total of 15 per paw. At the end of the 3 weeks of treatment and scoring, rats are euthanized for collection of blood and hind limbs. Blood is used to prepare serum to detect circulating levels of IbTX. For each rat, the left hind limb is used for micro-CT to detect bone damage followed by sectioning for histology to detect cartilage damage (safranin O/Fast Green stain) and synovium inflammation (hematoxylin and eosin stain). The right hind limb is used for the isolation of FLS to assess their proliferation and invasiveness ex vivo, using the methods described above, without further treatment."}, "[7]": {"assay": "Detection of functional IbTX in the circulation of rats by patch-clamp", "format": "in vivo, rat", "details": "enteric-coated capsule", "method": "CIA is induced in both male and female Lewis rats by their immunization twice at a week interval with porcine collagen II in emulsion with incomplete Freund's adjuvant. Rats are monitored for clinical signs of arthritis and receive an oral bolus of [1×10^7-1×10^9 CFU] LrIbTX or LrIbTX[R34D], or an enteric-coated capsule containing either 0.1 mg/kg body weight synthetic IbTX, IbTX[R34D] or glycerin on the day after the onset of clinical signs. Age- and sex-matched healthy rats are used for comparison. Blood is collected via the saphenous vein or via terminal cardiac puncture 1 hr, 6 hrs, and 24 hrs after gavage. Whole-cell patch-clamp is used to detect and quantify levels of functional IbTX in the serum of the rats."}, "RA-FLS": {"tested_on": "RA-FLS", "assay": "RA-FLS proliferation and invasion assays", "format": "cell-based, human", "details": "supernatants or synthetic peptide", "method": "For proliferation assays, RA-FLS are plated into 96 well plates and incubated for 48 hrs in the presence of media supplemented with either LrIbTX or LrIbTX[R34D] supernatants, known concentrations of synthetic IbTX, or the vehicle for IbTX. [3H] thymidine is added during the last 16-18 hrs of culture and the amount of [3H] thymidine incorporated into the DNA collected with a scintillation counter as a measure of cell division.\nFor invasion assays, RA-FLS are seeded in the upper compartment of a Matrigel-coated transwell and induced to cross into the lower compartment by the addition of FBS. The upper compartment is supplemented with either LrIbTX or LrIbTX[R34D] supernatants, synthetic IbTX, or the vehicle. The number of cells crossing into the lower compartment are counted as a measure of invasiveness."}, "[8]": {"details": "cells activated overnight, rested and re-stimulated"}}, "note": "Ends that are not written are not given here.", "data": [{"compound": "CC(C)(O)[C@H]1O[C@H]2CC[C@@]3(C)[C@@](O)(CC[C@H]4Cc5c([nH]c6ccccc56)[C@@]43C)C2=CC1=O", "note": "[paxilline]", "values": [{"measurement": "Side effects (incontinence, tremors)", "setting": "rats", "result": "induces incontinence and tremors"}]}, {"compound": "IbTX[R34D] (QFTDVDCSVSKECWSVCKDLFGVDRGKCMGKKCDCYQ; ends and bridges not checked; cysteine pairing not given here; UniProt P24663 1-37, looked up, variant R34D)", "values": [{"measurement": "Block of KCa1.1 channels", "setting": "KCa1.1; mutant IbTX", "result": "does not block KCa1.1 channels"}]}, {"compound": "ShK derivative, pTyr-AEEA-RSCIDTIPKSRCTAFQCKHSMKYRLSFCRKTCGTC, amidated C-terminus (SEQ ID NO:11) [ShK-186]", "values": [{"measurement": "Efficacy", "setting": "active plaque psoriasis", "result": "showed efficacy"}, {"measurement": "Tolerability", "setting": "active plaque psoriasis", "result": "well tolerated"}, {"measurement": "Selectivity for Kv1.3 over all other ion channels", "setting": "[1]", "result": "≥ 700", "unit": "fold"}, {"measurement": "Selectivity for Kv1.3 versus the closely-related Kv1.1 channel", "setting": "[1]", "result": 100, "unit": "fold"}, {"measurement": "Selectivity for Kv1.3 over other channels", "setting": "[1]; comparator value", "result": 100, "unit": "fold"}, {"measurement": "Sensitivity of TEM cell proliferation to the Kv1.3 blocker", "setting": "[2]; [8]", "result": "exquisitely sensitive"}, {"measurement": "Sensitivity of naïve/TCM cell proliferation to the Kv1.3 blocker", "setting": "[2]; [8]", "result": "resistant"}, {"measurement": "Fold more effective in suppressing [3H]-thymidine incorporation by TEM cells compared with naïve/TCM cells", "setting": "[2]; cells from patients with type 1 diabetes or RA, activated immediately after isolation", "result": 10, "unit": "fold"}, {"measurement": "IC50", "setting": "Kv1.3", "result": 0.07, "unit": "nM"}, {"measurement": "Effect on clearance of infections", "setting": "[3]", "result": "did not prevent the clearance"}, {"measurement": "Efficacy", "setting": "[4]", "result": "demonstrated efficacy"}, {"measurement": "Safety profile", "setting": "[5]", "result": "excellent safety profile"}]}, {"compound": "ShK-235-HA: HA-tagged ShK-235 (RSCIDTIPKSRCTAFKCKHSIKYRLSFCRKTCGTCA; ends and bridges not checked; also: HA tag (position not given here))", "values": [{"measurement": "Detection in spleen sections", "setting": "[6]", "result": "detect HA-ShK-235 in spleen sections"}]}, {"compound": "iberiotoxin (QFTDVDCSVSKECWSVCKDLFGVDRGKCMGKKCRCYQ; not fully specified (residue 1, bridges); cysteine pairing not given here; UniProt P24663 1-37, looked up) [IbTX]", "values": [{"measurement": "IC50", "setting": "KCa1.1", "result": 2, "unit": "nM"}, {"measurement": "Side effects (incontinence, tremors)", "setting": "rats", "result": "No such side effects"}, {"measurement": "Reduction of disease severity", "setting": "rat model of RA (PIA)", "result": "effective in reducing disease severity"}, {"measurement": "Efficacy in CIA", "setting": "CIA", "result": "showed efficacy"}, {"measurement": "CIA disease severity", "setting": "rat CIA model of RA", "result": "milder disease"}, {"measurement": "Detection of IbTX in the circulation", "setting": "[7]", "result": "transiently detected"}, {"measurement": "Inhibition of RA-FLS proliferation and invasiveness", "setting": "RA-FLS", "result": "inhibit"}]}, {"compound": "sea anemone Stichodactyla helianthus peptide RSCIDTIPKSRCTAFQCKHSMKYRLSFCRKTCGTC (SEQ ID NO:10) [ShK]", "values": [{"measurement": "IC50", "setting": "Kv1.3", "result": 0.01, "unit": "nM"}]}]}
